# From patent publication US20040244713A1, “Method for treating animals or masses of water with compositions comprising quinone compounds” (priority 2003, published 2004)
# Where two headings read alike, the source gives them in different places.
# Experiments:
# [1] = Hydrolysis test performed in darkness; assay type: physicochemical
# [2] = Photodegradability in sunlight and UV light; assay type: physicochemical; details: 10-ppm solution in drinking water (pH 6.5-7.5)
# Protocol: In a fully similar manner, the same behaviour is confirmed if one assesses the photodegradability in sunlight and UV light (the radiation test was performed on a 10-ppm solution in drinking water (pH 6.5-7.5)
# [3] = system: Haemoncus contortus larvae (L1); assay: Motility of Haemoncus contortus larvae (L1); assay type: in vivo
# Protocol: (§1) The effect of menadione nicotinamide bisulfite on Haemoncus contortus is assessed by measuring the motility of the larvae (L1), Table 2, and the faecal count of the larvae (L3), Table 2.1, according to the methodology described in Fetterer R. et Al. (1989) Vet. Parasitol. 32:181-189.
# [4] = system: Dreissena Polimorfa Larvae; assay: Toxicity test LC50 on Dreissena Polimorfa larvae; details: for LC50 Dreissena Polimorfa Larvae: in vivo
# From the text: (§9) The table below lists the results of the toxicity tests performed on fish fauna and on some phyto- and zooplankton species considered among the possible targets of the claimed method.
# [5] = system: Pseudomonas elongata NCIMB 1141; assay: Agar diffusion test (Kirby-Bauer); assay type: cell-based; details: MNB (100 μg) per disk, 24 hours in darkness
# Protocol: (§2) a) Kirby-Bauer test performed after 24 hours in darkness.
# (§3) In this test, paper disks impregnated with known quantities of MNB are placed on the surface of agar disks injected at confluence with a standard suspension of a bacterial strain. The antibacterial agent diffuses on the plate, causing the formation of an area of inhibition of the growth of the bacterial strain around the disk with the inhibiting quantity of the agent. By virtue of a calibration curve it was possible to classify the isolates into susceptible, moderately resistant, and resistant.
# (§4) The method being considered, therefore, assesses the effectiveness of a single quantity of agent ([…]) against two control strains of Gram-positive and Gram-negative aerobic bacteria (Gram-negative: Pseudomonas elongata NCIMB 1141; Gram-positive: Staphylococcus aureus ATCC 25923).
# (§5) The results are given in the table and represent the size of the inhibition halos in millimetres after contact with 100 μg of MNB.
# [6] = system: Staphylococcus aureus ATCC 25923; assay: Agar diffusion test (Kirby-Bauer); assay type: cell-based; details: MNB (100 μg) per disk, 24 hours in darkness
# Protocol: as §2, §3, §4, §5
# [7] = Biodegradability OECD 301 A (92/69/EEC C4-A); assay type: physicochemical
# From the text: The degradability of a substance is normally a factor that is impossible to predict on a structural basis. […] On the basis of the available data related to the compounds that are chemically more similar to the derivatives of menadione described here, one could have expected a degradability comprised between the 0% (percentage calculated on the initial mass of product expressed as mg/l) of menadione (2-methyl-1,4-naphthalenedione) and the 17% (assessed after 28 days) of menadione sodium bisulfite (where the calculation was performed by using the OECD301 A guidelines annexed to EEC directive 92/69/EEC C4-A).
# Finally, biodegradability according to the 92/69/EEC C4-A regulation was also assessed.
# [8] = system: Artemia Salina; assay: Toxicity test LC50 on Artemia Salina; details: in vivo
# From the text: as §9
# [9] = system: Haemoncus contortus larvae (L3); assay: Faecal count of Haemoncus contortus larvae (L3); assay type: in vivo
# Protocol: as §1
# [10] = system: Rainbow trout; assay: Toxicity test LC50 on fish fauna, Rainbow trout; assay type: in vivo
# From the text: as §9
# [11] = system: Isochris Galbana; assay: Toxicity test LC50 on Isochris Galbana; assay type: cell-based
# From the text: as §9
# [12] = system: Aeromonas sp. CH34; assay: MIC and MBC determination; assay type: cell-based; details: 24 hours in darkness, tested range 0.12-64 mg/l
# Protocol: (§6) Tested concentration range: 0.12-64 mg/l.
# [13] = system: Pseudomonas putida NCIMB 1960; assay: MIC and MBC determination; assay type: cell-based; details: 24 hours in darkness, tested range 0.12-64 mg/l
# Protocol: as §6
# [14] = system: Bacillus licheniformis NCIMB 1525; assay: MIC and MBC determination; assay type: cell-based; details: 24 hours in darkness, tested range 0.12-64 mg/l
# Protocol: as §6
# [15] = system: Pseudomonas elongata NCIMB 1141; assay: MIC and MBC determination; assay type: cell-based; details: 24 hours in darkness, tested range 0.12-64 mg/l
# Protocol: as §6
# [16] = system: Pseudomonas aeruginosa ATCC 10145; assay: MIC and MBC determination; assay type: cell-based; details: 24 hours in darkness, tested range 0.12-64 mg/l
# Protocol: as §6
# [17] = system: Staphylococcus aureus ATCC 25923; assay: MIC and MBC determination; assay type: cell-based; details: 24 hours in darkness, tested range 0.12-64 mg/l
# Protocol: as §6
# [18] = system: Micrococcus sp. AD10; assay: MIC and MBC determination; assay type: cell-based; details: 24 hours in darkness, tested range 0.12-64 mg/l
# Protocol: as §6
# [19] = system: Corynebacterium sp. CT15; assay: MIC and MBC determination; assay type: cell-based; details: 24 hours in darkness, tested range 0.12-64 mg/l
# Protocol: as §6
# [20] = system: Escherichia coli ATCC 25922; assay: MIC and MBC determination; assay type: cell-based; details: 24 hours in darkness, tested range 0.12-64 mg/l
# Protocol: as §6
# [21] = system: Vibrio parahaemolyticus AD19; assay: MIC and MBC determination; assay type: cell-based; details: 24 hours in darkness, tested range 0.12-64 mg/l
# Protocol: as §6
# [22] = system: Micrococcus sp. AE11; assay: MIC and MBC determination; assay type: cell-based; details: 24 hours in darkness, tested range 0.12-64 mg/l
# Protocol: as §6
# [23] = system: Bacillus subtilis; assay: MIC and MBC determination; assay type: cell-based; details: Bacillus subtilis ATCC 25923; 24 hours in darkness; tested range 0.12-64 mg/l
# Protocol: as §6
# [24] = Protocol: As noted repeatedly, the water solubility of the biocidal candidate is an essential requirement for advantageous use in biological water control. Accordingly, this property was evaluated for four of the compounds that are representative of the chemical classes to which the biocides currently in use belong.
# [25] = system: Eurytemora Affinis; assay: Toxicity test LC50 on Eurytemora Affinis; details: in vivo
# From the text: as §9
# [26] = system: Vibrio sp. AD18; details: 24 hours in darkness, tested range 0.12-64 mg/l
# Protocol: (§7) The MNB compound was tested in particular for its antibacterial activity on pathogenic and non-pathogenic organisms. The biocidal activity of MNB was estimated by using two separate methods: the agar diffusion test (Kirby-Bauer method) and the determination of the Minimum Inhibiting Concentration (MIC) and the Minimum Bactericidal Concentration (MBC).
# (§8) b) Test for determining the MIC (minimum inhibiting concentration) and the MBC (minimum bactericidal concentration) of MNB with respect to pathogenic organisms after the colonies were kept in darkness for 24 hours. Tested concentration range: 0.12-64 mg/l. The tested strains were environmental isolates identified by means of an internal number or were standard strains identified by means of the ATCC or MNCIB filing number.
# [27] = system: Vibrio sp. AE7; details: 24 hours in darkness, tested range 0.12-64 mg/l
# Protocol: as §7, §8
# [28] = system: Vibrio sp. CH45; details: 24 hours in darkness, tested range 0.12-64 mg/l
# Protocol: as §7, §8
# [29] = Feeding trial in rabbits in the fattening stage (growth, mortality); assay type: in vivo, New Zealand White rabbits; details: in feed: Bacitracin zinc 1.5 ppm, MSB 250 ppm; for Final number of animals / Final average weight / Mortality %: end of fattening cycle (53 days after weaning); for Final number of animals: 200 animals initially; for Average daily growth: fattening cycle of 53 days after weaning
# Protocol: The effect of a preparation comprising menadione sodium bisulfite coated with saturated vegetable fatty acids on rabbits in the fattening stage is evaluated.
# Composition of the preparation (per Kg of final preparation):
# MSB coated with hydrogenated vegetable fatty acids (1:1 inclusion ratio) 250 g;
# This preparation is added in the quantity of 1 Kg per ton of feed, so that the final concentration of MSB is equal to 125 ppm/Kg of finished food. Since rabbits are fed with 120-150 grams of feed/day, the concentration of MSB is equal to an average daily dose of approximately 15-20 mg of MSB/animal per day.
# New Zealand White animals, weaned at 32 days, were grown with the preparation cited above and compared with animals of the same race, fed with the same basic feed but treated with bacitracin zinc in a quantity equal to 150 mg/100 Kg of feed and with animals lacking any drug integration.
# [30] = OECD301 A guidelines, cited from earlier work
# [31] = system: Eurytemora Affinis; details: in vivo
# From the text: as §9
compound,measurement,setting,value
"O=C1C=CC(=O)c2c(O)cccc21 [Juglone, 5-hydroxy-1,4-naphthalenedione, reference compound]","½ LIFE, hydrolysis","[1]; PH 9, in darkness",15 h
same,Light exp. Total Degr.,[2],48 h
"CC1(S(=O)(=O)O)CC(=O)c2ccccc2C1=O.NC(=O)c1cccnc1 (stereo not drawn) [MNB, menadione nicotinamide bisulfite]","½ LIFE, hydrolysis","[1]; PH 6.8, in darkness",48 h
same,"½ LIFE, hydrolysis","[1]; PH 9, in darkness",<3 h
same,% of motile larvae (L1),[3]; 1 μg of MNB/ml,70%
same,% of motile larvae (L1),[3]; 10 μg of MNB/ml,43%
same,% of motile larvae (L1),[3]; 100 μg of MNB/ml,3%
same,LC50 Dreissena Polimorfa Larvae,[4],1 ppm
same,size of the inhibition halos,[5],20 mm
same,size of the inhibition halos,[6],20 mm
same,Light exp. Total Degr.,[2],48 h
same,Light exp. ½ life,[2],10 h
same,degradability compared with that of MSB,[7],as much as eight times higher
same,% biodegr. OECD 301 A,[7]; after 7 days,37%
same,% biodegr. OECD 301 A,[7]; after 14 days,37%
same,% biodegr. OECD 301 A,[7]; after 28 days,40%
same,LC50 Artemia Salina,[8],5 ppm
same,Total no. of larvae (L3),[9]; 1 μg of MNB/ml,650
same,Total no. of larvae (L3),[9]; 10 μg of MNB/ml,310
same,Total no. of larvae (L3),[9]; 100 μg of MNB/ml,35
same,LC50 Rainbow trout (assessed on 96 h),[10],0.4 ppm
same,LC50 Isochris Galbana,[11],0.5 ppm
same,MBC,[12],64 µg/mL
same,MIC,[12],32 µg/mL
same,MBC,[13],>64 µg/mL
same,MIC,[13],>64 µg/mL
same,MBC,[14],32 µg/mL
same,MIC,[14],16 µg/mL
same,MBC,[15],16 µg/mL
same,MIC,[15],8 µg/mL
same,MBC,[16],>64 µg/mL
same,MIC,[16],>64 µg/mL
same,MBC,[17],16 µg/mL
same,MIC,[17],8 µg/mL
same,MBC,[18],32 µg/mL
same,MIC,[18],16 µg/mL
same,MBC,[19],16 µg/mL
same,MIC,[19],8 µg/mL
same,MBC,[20],>64 µg/mL
same,MIC,[20],>64 µg/mL
same,MBC,[21],4 µg/mL
same,MIC,[21],1 µg/mL
same,MBC,[22],16 µg/mL
same,MIC,[22],8 µg/mL
same,MBC,[23],32 µg/mL
same,MIC,[23],12 µg/mL
same,Sol. in H2O,[24],19 gr/l
same,LC50 Eurytemora Affinis,[25],5 ppm
same,MBC,[26],32 µg/mL
same,MIC,[26],16 µg/mL
same,MBC,[27],32 to 64 µg/mL
same,MIC,[27],16 to 32 µg/mL
same,MBC,[28],16 µg/mL
same,MIC,[28],16 µg/mL
"CC1(S(=O)(=O)[O-])CC(=O)c2ccccc2C1=O.[Na+] (stereo not drawn) [MSB, menadione sodium bisulfite]",Final number of animals,[29],191
same,Final average weight,[29],2.84 kilograms
same,Mortality %,[29],4.5%
same,Average daily growth,[29],38.1 grams
same,% biodegr. OECD 301 A,[7]; after 7 days,5%
same,% biodegr. OECD 301 A,[7]; after 14 days,10%
same,degradability (percentage calculated on the initial mass of product expressed as mg/l),"[30]; assessed after 28 days, available/reported data",17%
"CC1=CC(=O)c2ccccc2C1=O [Menadione, 2-methyl-1,4-naphthalenedione, reference compound]",LC50 Eurytemora Affinis,[31],5 ppm
same,"½ LIFE, hydrolysis","[1]; PH 6.8, in darkness",1500 h
same,"½ LIFE, hydrolysis","[1]; PH 9, in darkness",550 h
same,"LC50 on Dreissena Polimorfa relative to 2-methyl-5-hydroxy-1,4-naphthalenedione",[4]; 500 ppm vs 0.2 ppm,2500 times
same,LC50 Dreissena Polimorfa Larvae,[4],500 ppm
same,Light exp. Total Degr.,[2],>5000 h
same,Light exp. ½ life,[2],1500 h
same,LC50 Artemia Salina,[8],5 ppm
same,LC50 Rainbow trout (assessed on 96 h),[10],0.1 ppm
same,degradability (percentage calculated on the initial mass of product expressed as mg/l),"[30]; available data, time not stated",0%
same,LC50 Isochris Galbana,[11],0.05 ppm
Cc1ccc2c(c1)C(=O)c1ccccc1C2=O [2-methyl-anthraquinone],LC50 Eurytemora Affinis,[31],5 ppm
same,LC50 Dreissena Polimorfa Larvae,[4],200 ppm
same,LC50 Artemia Salina,[8],5 ppm
same,LC50 Isochris Galbana,[11],0.5 ppm
bacitracin zinc [reference compound],Final number of animals,[29],185
same,Final average weight,[29],2.77 kilograms
same,Mortality %,[29],7.5%
same,Average daily growth,[29],36.8 grams
"CC1=CC(=O)c2c(O)cccc2C1=O [2-methyl-5-hydroxy-1,4-naphthalenedione]",LC50 Dreissena Polimorfa Larvae,[4],0.2 ppm
same,LC50 Artemia Salina,[8],5 ppm
same,LC50 Isochris Galbana,[11],0.5 ppm
same,LC50 Eurytemora Affinis,[25],5 ppm
